# Reference: patent publication US20130072430A1, “METHODS FOR TREATMENT OR PROPHYLAXIS OF KIDNEY OR LIVER DYSFUNCTION” (NPS PHARMACEUTICALS, INC., priority 2010, published 2013)
# System: Human patients with short bowel syndrome
# Test: Example 2: liver biomarkers (albumin, gamma glutamyl transferase, total bilirubin, ALT, AST, ALP) in short bowel syndrome patients, every four weeks for 24 weeks
# Format: in vivo
# Protocol: To further confirm the results of Example 1, a further study was conducted involving more individuals and additional diagnostic biomarkers. Human patients with short bowel syndrome were divided into two groups: a control group (43 total individuals) to receive placebo, and an experimental group (42 total individuals) to receive teduglutide at 0.05 mg/kg/day throughout the study. Patients were treated by subcutaneous injection of placebo or the appropriate dose of teduglutide. Known biomarkers of liver function were monitored every four weeks, for 24 weeks. The liver biomarkers tested included albumin, gamma glutamyl transferase, total bilirubin, ALT and AST and ALP. Before administration of placebo or teduglutide, diagnostic biomarker levels were tested to establish a baseline for each individual.
# To determine the effect of GLP-2 on the levels of the diagnostic biomarkers, the average level of each biomarker was measured for the placebo and teduglutide treated groups for each visit. Furthermore, the average change from baseline was calculated using the established baseline values. For FIGS. 17-28, p-values were calculated using the t-test.
# P values are provided, which were calculated for each distribution of biomarker changes for each week using the chi-squared test.
# [1] = Endpoint (last assessment after start of treatment), 0.05 mg/kg/d, n=42
# [2] = Endpoint (last assessment), 0.05 mg/kg/d, m=42
structure (smiles),measurement,setting,value
CC[C@H](C)[C@H](NC(=O)[C@H](Cc1ccccc1)NC(=O)[C@H](CC(=O)O)NC(=O)[C@H](CCCNC(=N)N)NC(=O)[C@H](C)NC(=O)[C@H](C)NC(=O)[C@H](CC(C)C)NC(=O)[C@H](CC(N)=O)NC(=O)[C@H](CC(=O)O)NC(=O)[C@H](CC(C)C)NC(=O)[C@@H](NC(=O)[C@@H](NC(=O)[C@H](CC(N)=O)NC(=O)[C@H](CCSC)NC(=O)[C@H](CCC(=O)O)NC(=O)[C@H](CC(=O)O)NC(=O)[C@H](CO)NC(=O)[C@H](Cc1ccccc1)NC(=O)[C@H](CO)NC(=O)CNC(=O)[C@H](CC(=O)O)NC(=O)CNC(=O)[C@@H](N)Cc1c[nH]cn1)[C@@H](C)O)[C@@H](C)CC)C(=O)N[C@@H](CC(N)=O)C(=O)N[C@@H](Cc1c[nH]c2ccccc12)C(=O)N[C@@H](CC(C)C)C(=O)N[C@H](C(=O)N[C@@H](CCC(N)=O)C(=O)N[C@H](C(=O)N[C@@H](CCCCN)C(=O)N[C@H](C(=O)N[C@H](C(=O)N[C@@H](CC(=O)O)C(=O)O)[C@@H](C)O)[C@@H](C)CC)[C@@H](C)O)[C@@H](C)CC [teduglutide],average level of diagnostic biomarkers elevated in liver dysfunction versus placebo cohort,0.05 mg/kg/day,"lower level, on average"
same,likelihood of a >10% decrease in liver biomarkers versus placebo,0.05 mg/kg/day,more likely
same,likelihood of a >10% increase in liver biomarkers versus placebo,0.05 mg/kg/day,less likely
same,measured level of albumin relative to placebo cohort,"0.05 mg/kg/day, as treatment progressed",became elevated
same,"ALKALINE PHOSPHATASE Change from Baseline, Median",[1],−22 U/L
same,"ALT Change from Baseline, Mean",[1],−12.1 U/L
same,"ALT Change from Baseline, Median",[1],−4 U/L
same,"ALT Observed Value, Mean",[1],31.0 U/L
same,"ALT Observed Value, Median",[1],23.5 U/L
same,"AST Change from Baseline, Mean",[1],−5.4 U/L
same,"AST Change from Baseline, Median",[1],−3 U/L
same,"AST Observed Value, Mean",[1],27.0 U/L
same,"AST Observed Value, Median",[1],24 U/L
same,"Albumin Change from Baseline, Mean",[1],-0.5 g/L
same,"Albumin Change from Baseline, Median",[1],0 g/L
same,"Albumin Observed Value, Mean",[1],41.9 g/L
same,"Albumin Observed Value, Median",[1],42 g/L
same,"Alkaline Phosphatase Change from Baseline, Mean",[1],−28.3 U/L
same,"Alkaline Phosphatase Observed Value, Mean",[1],106.4 U/L
same,"Alkaline Phosphatase Observed Value, Median",[1],90.5 U/L
same,"Bilirubin Change from Baseline, Mean",[1],-3.33 µmol/L
same,"Bilirubin Change from Baseline, Median",[1],-1.95 µmol/L
same,"Bilirubin Observed Value, Mean",[1],8.87 µmol/L
same,"Bilirubin Observed Value, Median",[1],6.95 µmol/L
same,"Gamma Glutamyl Transferase Change from Baseline, Mean",[1],−12.8 U/L
same,"Gamma Glutamyl Transferase Change from Baseline, Median",[1],−6 U/L
same,"Gamma Glutamyl Transferase Observed Value, Mean",[1],62.3 U/L
same,"Gamma Glutamyl Transferase Observed Value, Median",[1],42 U/L
same,"ALT >10% decrease from Baseline, % of subjects",[2],(59.5%)
same,"ALT >10% decrease from Baseline, n subjects",[2],25
same,"ALT >10% increase from Baseline, % of subjects",[2],(11.9%)
same,"ALT >10% increase from Baseline, n subjects",[2],5
same,"ALT Within 10% of Baseline, % of subjects",[2],(28.6%)
same,"ALT Within 10% of Baseline, n subjects",[2],12
same,"AST >10% decrease from Baseline, % of subjects",[2],(59.5%)
same,"AST >10% decrease from Baseline, n subjects",[2],25
same,"AST >10% increase from Baseline, % of subjects",[2],(14.3%)
same,"AST >10% increase from Baseline, n subjects",[2],6
same,"AST Within 10% of Baseline, % of subjects",[2],(26.2%)
same,"AST Within 10% of Baseline, n subjects",[2],11
same,"Albumin >10% decrease from Baseline, % of subjects",[2],(4.8%)
same,"Albumin >10% decrease from Baseline, n subjects",[2],2
same,"Albumin >10% increase from Baseline, n subjects",[2],0
same,"Albumin Within 10% of Baseline, % of subjects",[2],(95.2%)
same,"Albumin Within 10% of Baseline, n subjects",[2],40
same,"Alkaline Phosphatase >10% decrease from Baseline, % of subjects",[2],(57.1%)
same,"Alkaline Phosphatase >10% decrease from Baseline, n subjects",[2],24
same,"Alkaline Phosphatase >10% increase from Baseline, % of subjects",[2],(14.3%)
same,"Alkaline Phosphatase >10% increase from Baseline, n subjects",[2],6
same,"Alkaline Phosphatase Within 10% of Baseline, % of subjects",[2],(28.6%)
same,"Alkaline Phosphatase Within 10% of Baseline, n subjects",[2],12
same,"Bilirubin >10% decrease from Baseline, % of subjects",[2],(64.3%)
same,"Bilirubin >10% decrease from Baseline, n subjects",[2],27
same,"Bilirubin >10% increase from Baseline, % of subjects",[2],(16.7%)
same,"Bilirubin >10% increase from Baseline, n subjects",[2],7
same,"Bilirubin Within 10% of Baseline, % of subjects",[2],(19.0%)
same,"Bilirubin Within 10% of Baseline, n subjects",[2],8
same,"ALT >10% decrease from Baseline, % of subjects","Week 2, 0.05 mg/kg/d, m=40",(57.5%)
same,"ALT >10% decrease from Baseline, n subjects","Week 2, 0.05 mg/kg/d, m=40",23
same,"ALT >10% increase from Baseline, % of subjects","Week 2, 0.05 mg/kg/d, m=40",(17.5%)
same,"ALT >10% increase from Baseline, n subjects","Week 2, 0.05 mg/kg/d, m=40",7
same,"ALT Within 10% of Baseline, % of subjects","Week 2, 0.05 mg/kg/d, m=40",(25.0%)
same,"ALT Within 10% of Baseline, n subjects","Week 2, 0.05 mg/kg/d, m=40",10
same,"AST >10% decrease from Baseline, % of subjects","Week 2, 0.05 mg/kg/d, m=40",(50.0%)
same,"AST >10% decrease from Baseline, n subjects","Week 2, 0.05 mg/kg/d, m=40",20
same,"AST >10% increase from Baseline, % of subjects","Week 2, 0.05 mg/kg/d, m=40",(12.5%)
same,"AST >10% increase from Baseline, n subjects","Week 2, 0.05 mg/kg/d, m=40",5
same,"AST Within 10% of Baseline, % of subjects","Week 2, 0.05 mg/kg/d, m=40",(37.5%)
same,"AST Within 10% of Baseline, n subjects","Week 2, 0.05 mg/kg/d, m=40",15
same,"Albumin >10% decrease from Baseline, % of subjects","Week 2, 0.05 mg/kg/d, m=40",(7.5%)
same,"Albumin >10% decrease from Baseline, n subjects","Week 2, 0.05 mg/kg/d, m=40",3
same,"Albumin >10% increase from Baseline, n subjects","Week 2, 0.05 mg/kg/d, m=40",0
same,"Albumin Within 10% of Baseline, % of subjects","Week 2, 0.05 mg/kg/d, m=40",(92.5%)
same,"Albumin Within 10% of Baseline, n subjects","Week 2, 0.05 mg/kg/d, m=40",37
same,"Alkaline Phosphatase >10% decrease from Baseline, % of subjects","Week 2, 0.05 mg/kg/d, m=40",(37.5%)
same,"Alkaline Phosphatase >10% decrease from Baseline, n subjects","Week 2, 0.05 mg/kg/d, m=40",15
same,"Alkaline Phosphatase >10% increase from Baseline, % of subjects","Week 2, 0.05 mg/kg/d, m=40",(15.0%)
same,"Alkaline Phosphatase >10% increase from Baseline, n subjects","Week 2, 0.05 mg/kg/d, m=40",6
same,"Alkaline Phosphatase Within 10% of Baseline, % of subjects","Week 2, 0.05 mg/kg/d, m=40",(47.5%)
same,"Alkaline Phosphatase Within 10% of Baseline, n subjects","Week 2, 0.05 mg/kg/d, m=40",19
same,"Bilirubin >10% decrease from Baseline, % of subjects","Week 2, 0.05 mg/kg/d, m=40",(70.0%)
same,"Bilirubin >10% decrease from Baseline, n subjects","Week 2, 0.05 mg/kg/d, m=40",28
same,"Bilirubin >10% increase from Baseline, % of subjects","Week 2, 0.05 mg/kg/d, m=40",(17.5%)
same,"Bilirubin >10% increase from Baseline, n subjects","Week 2, 0.05 mg/kg/d, m=40",7
same,"Bilirubin Within 10% of Baseline, % of subjects","Week 2, 0.05 mg/kg/d, m=40",(12.5%)
same,"Bilirubin Within 10% of Baseline, n subjects","Week 2, 0.05 mg/kg/d, m=40",5
same,"ALKALINE PHOSPHATASE Change from Baseline, Median","Week 2, 0.05 mg/kg/d, n=40",−8 U/L
same,"ALT Change from Baseline, Mean","Week 2, 0.05 mg/kg/d, n=40",−8.9 U/L
same,"ALT Change from Baseline, Median","Week 2, 0.05 mg/kg/d, n=40",−5.5 U/L
same,"ALT Observed Value, Mean","Week 2, 0.05 mg/kg/d, n=40",35.2 U/L
same,"ALT Observed Value, Median","Week 2, 0.05 mg/kg/d, n=40",27.5 U/L
same,"AST Change from Baseline, Mean","Week 2, 0.05 mg/kg/d, n=40","−3.6, U/L"
same,"AST Change from Baseline, Median","Week 2, 0.05 mg/kg/d, n=40",−3 U/L
same,"AST Observed Value, Mean","Week 2, 0.05 mg/kg/d, n=40",29.0 U/L
same,"AST Observed Value, Median","Week 2, 0.05 mg/kg/d, n=40",24.5 U/L
same,"Albumin Change from Baseline, Mean","Week 2, 0.05 mg/kg/d, n=40",-0.9 g/L
same,"Albumin Change from Baseline, Median","Week 2, 0.05 mg/kg/d, n=40",-1 g/L
same,"Albumin Observed Value, Mean","Week 2, 0.05 mg/kg/d, n=40",41.5 g/L
same,"Albumin Observed Value, Median","Week 2, 0.05 mg/kg/d, n=40",42 g/L
same,"Alkaline Phosphatase Change from Baseline, Mean","Week 2, 0.05 mg/kg/d, n=40",−12.5 U/L
same,"Alkaline Phosphatase Observed Value, Mean","Week 2, 0.05 mg/kg/d, n=40",123.7 U/L
same,"Alkaline Phosphatase Observed Value, Median","Week 2, 0.05 mg/kg/d, n=40",104 U/L
same,"Bilirubin Change from Baseline, Mean","Week 2, 0.05 mg/kg/d, n=40",-2.12 µmol/L
same,"Bilirubin Change from Baseline, Median","Week 2, 0.05 mg/kg/d, n=40",-1.85 µmol/L
same,"Bilirubin Observed Value, Mean","Week 2, 0.05 mg/kg/d, n=40",10.29 µmol/L
same,"Bilirubin Observed Value, Median","Week 2, 0.05 mg/kg/d, n=40",7.65 µmol/L
same,"Gamma Glutamyl Transferase Change from Baseline, Mean","Week 2, 0.05 mg/kg/d, n=40",7.4 U/L
